Our source for the IC50 values is US9085576B2 (AMGEN INC., priority 2013, dated 2015).

The target in assay [1] is Beta Secretase enzyme (BACE) (Homo sapiens (Human), UniProt P56817). As to the kind of experiment: In vitro enzymatic BACE FRET assay. Type of assay: biochemical. The settings on record: read-out: BACE1 Enzyme assay IC50.
In the next assay the target is Cathepsin D (Cat D) (Homo sapiens (Human), UniProt P07339). As to the kind of experiment: In vitro enzymatic Cathepsin D (Cat D) FRET assay. In kind it is biochemical. Conditions: read-out: CatD IC50.
Cathepsin D (Cat D), sequence (P07339 65-412, species assumed): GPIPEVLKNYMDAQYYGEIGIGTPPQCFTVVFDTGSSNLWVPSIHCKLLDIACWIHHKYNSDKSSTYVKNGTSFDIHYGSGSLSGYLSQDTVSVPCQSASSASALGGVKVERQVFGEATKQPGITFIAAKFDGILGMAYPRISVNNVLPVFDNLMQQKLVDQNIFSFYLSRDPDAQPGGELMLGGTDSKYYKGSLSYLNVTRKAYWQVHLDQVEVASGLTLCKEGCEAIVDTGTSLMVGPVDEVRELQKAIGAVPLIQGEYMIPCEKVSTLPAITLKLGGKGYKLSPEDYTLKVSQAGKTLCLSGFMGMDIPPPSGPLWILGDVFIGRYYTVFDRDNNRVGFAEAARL
For another assay, the target named is BACE (Homo sapiens (Human), UniProt P56817). Nature of the assay: In vitro BACE cell-based assay (Aβ40 in conditioned medium, sandwich ELISA).
BACE, sequence (P56817 46-501, species assumed): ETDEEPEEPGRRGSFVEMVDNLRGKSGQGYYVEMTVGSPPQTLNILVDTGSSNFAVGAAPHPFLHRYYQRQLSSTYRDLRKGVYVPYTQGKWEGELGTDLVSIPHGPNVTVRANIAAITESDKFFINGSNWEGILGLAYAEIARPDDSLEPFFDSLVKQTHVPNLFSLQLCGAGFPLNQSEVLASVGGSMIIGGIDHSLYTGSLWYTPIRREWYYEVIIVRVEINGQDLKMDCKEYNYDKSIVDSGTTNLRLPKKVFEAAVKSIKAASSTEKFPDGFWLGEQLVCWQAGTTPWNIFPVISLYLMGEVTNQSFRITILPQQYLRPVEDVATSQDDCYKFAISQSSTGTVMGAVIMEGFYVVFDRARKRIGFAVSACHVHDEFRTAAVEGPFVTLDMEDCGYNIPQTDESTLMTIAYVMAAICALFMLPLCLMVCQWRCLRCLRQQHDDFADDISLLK

Beta Secretase enzyme (BACE), sequence (P56817 46-501): as the sequence (P56817 46-501, species assumed) above

As for `Cc1cc(C#N)cnc1C(=O)Nc1cc(F)c(Cl)c([C@@]2(CF)N=C(N)O[C@@H]3C[C@@H]32)c1` [Example 138, N-(3-((1R,5S,6R)-3-amino-5-(fluoromethyl)-2-oxa-4-azabicyclo[4.1.0]hept-3-en-5-yl)-4-chloro-5-fluorophenyl)-5-cyano-3-methylpicolinamide], the concentration for half-maximal inhibition (IC50) in assay [1] amounted to 36.2 nM; at Cathepsin D (Cat D), 662 µM; against BACE it was 0.0151 µM.

On to `COc1cnc(C(=O)Nc2cc(F)c(F)c([C@@]3(CF)N=C(N)O[C@@H]4C[C@@H]43)c2)cn1` [Example 143, N-(3-((1R,5S,6R)-3-amino-5-(fluoromethyl)-2-oxa-4-azabicyclo[4.1.0]hept-3-en-5-yl)-4,5-difluorophenyl)-5-methoxypyrazine-2-carboxamide], for which the IC50 is 125 nM in assay [1], 529 µM at Cathepsin D (Cat D) and 0.0221 µM against BACE.

Turning to `COc1cnc(C(=O)Nc2cc(F)c(F)c([C@]3(CF)N=C(N)O[C@H]4C[C@H]43)c2)cn1` [Example 144, N-(3-((1S,5R,6S)-3-amino-5-(fluoromethyl)-2-oxa-4-azabicyclo[4.1.0]hept-3-en-5-yl)-4,5-difluorophenyl)-5-methoxypyrazine-2-carboxamide], the IC50 was > 40000 nM in assay [1], 1340 µM at Cathepsin D (Cat D) and 4.62 µM against BACE.

Regarding `CC(C)Oc1cnc(C(=O)Nc2ccc(F)c([C@@]3(C(F)F)N=C(N)O[C@@H]4C[C@@H]43)c2)cn1` [Example 147, N-(3-((1R,5S,6R)-3-amino-5-(difluoromethyl)-2-oxa-4-azabicyclo[4.1.0]hept-3-en-5-yl)-4-fluorophenyl)-5-isopropoxypyrazine-2-carboxamide], the IC50 in assay [1] is 732 nM; on Cathepsin D (Cat D) it was 706 µM; against BACE, 1 µM.

Take `NC1=N[C@@](c2cc(NC(=O)c3csc(C(F)F)n3)ccc2F)(C(F)F)[C@H]2C[C@H]2O1` [Example 149, N-(3-((1R,5S,6R)-3-amino-5-(difluoromethyl)-2-oxa-4-azabicyclo[4.1.0]hept-3-en-5-yl)-4-fluorophenyl)-2-(difluoromethyl)thiazole-4-carboxamide]: the IC50 in assay [1] is 194 nM; on Cathepsin D (Cat D), 1700 µM; against BACE it was 0.152 µM.

On to `NC1=N[C@@](c2cc(NC(=O)c3coc(C(F)F)n3)ccc2F)(C(F)F)[C@H]2C[C@H]2O1` [Example 150, N-(3-((1R,5S,6R)-3-amino-5-(difluoromethyl)-2-oxa-4-azabicyclo[4.1.0]hept-3-en-5-yl)-4-fluorophenyl)-2-(difluoromethyl)oxazole-4-carboxamide 2,2,2-trifluoroacetate], for which the figures for the 50% inhibitory concentration (IC50) (in assay [1]; on Cathepsin D (Cat D); on BACE) were 32.2 nM, 238 µM and 0.0182 µM, respectively.

Turning to `NC1=N[C@@](c2cc(NC(=O)c3coc(C#CC4CC4)n3)ccc2F)(C(F)F)[C@H]2C[C@H]2O1` [Example 151, N-(3-((1R,5S,6R)-3-amino-5-(difluoromethyl)-2-oxa-4-azabicyclo[4.1.0]hept-3-en-5-yl)-4-fluorophenyl)-2-(cyclopropylethynyl) oxazole-4-carboxamide], the values for the IC50 (in assay [1]; on Cathepsin D (Cat D); at BACE) were 24800 nM, 302 µM and 1.07 µM, respectively.

In the case of `Cn1nc(C(F)F)cc1C(=O)Nc1ccc(F)c([C@@]2(C(F)F)N=C(N)O[C@@H]3C[C@@H]32)c1` [Example 154, N-(3-((1R,5S,6R)-3-amino-5-(difluoromethyl)-2-oxa-4-azabicyclo[4.1.0]hept-3-en-5-yl)-4-fluorophenyl)-3-(difluoromethyl)-1-methyl-1H-pyrazole-5-carboxamide], the IC50 came to 240 nM in assay [1], 515 µM at Cathepsin D (Cat D) and 0.109 µM against BACE.

For `COc1cnc(C(=O)Nc2cc(F)c(Cl)c([C@]3(CF)N=C(N)O[C@H]4C[C@H]43)c2)cn1` [Example 155], the half-maximal inhibitory concentration (IC50) was > 40000 nM in assay [1], 647 µM at Cathepsin D (Cat D) and > 15.6 µM on BACE.
